{"source": "patent US20230184743A1", "about": "“SCREENING METHODS TO IDENTIFY SMALL MOLECULE COMPOUNDS THAT PROMOTE OR INHIBIT THE GROWTH OF CIRCULATING TUMOR CELLS, AND USES THEREOF” (University of Southern California, priority 2020, published 2023)", "test_system": "BRx68-GFP+ cells", "assay": "RNA-seq analysis of pools of growing single cell clones", "type": "cell-based, human", "settings": "day 6; NAC 0.3 mM, P4D8 1 μM", "procedure": "RNA-seq analysis. BRx68-GFP+ cells were sorted, with 1 cell per well, using the MoFlo cell sorter (Beckman Coulter). Single cells were cultured in the presence of CTC media containing either 1 μM of P1C2, P4D8, or P1G7, or 0.3 mM of NAC or a combination of 1 μM of P1C2 and 0.3 mM of NAC. Cells cultured in media containing DMSO served as a control. All cells were cultured for either 6 days or 13 days at 37° C., 5% CO2 and 4% O2, and media was changed every 3 days. For both day 6 and day 13 groups, only clones with more than 3 cells at day 6 were harvested and pooled to a maximum of 50 cells. […] Libraries were sequenced on an Illumina NextSeq500 to obtain 75 bp-long single-end reads.\nRNA-sequencing reads were trimmed for Nextera and Illumina adapter sequences using Trim Galore under default parameters. Trimmed reads were then mapped to the human genome build GRCh37 from Ensembl (ftp:/][/ftp.ensembl.org/pub/grch37/current/fasta/homo_sapiens/dna/Homo_sapiens.GRCh37.dna_sm.primary_as sembly.fa.gz) using STAR under optimized parameters for single-end sequenced data. Aligned reads were then counted via feature-Counts and piped into DESeq2 for normalization to sequencing depth and downstream analysis. […]", "data": [{"smiles": "CC(=O)N[C@@H](CS)C(=O)O", "note": "[NAC, N-acetyl-L-cysteine]", "values": [{"measurement": "lipid metabolism pathway enrichment (IPA of differentially expressed genes) compared with control", "value": "enriched"}]}]}
